# Results from ChEMBL document CHEMBL4480430, “Advances in inhibition of protein-protein interactions targeting hypoxia-inducible factor-1 for cancer therapy” (Bioorg Med Chem, 2019).
# Numbered stars: 1 amine (or outer) side, 2 acyl side, 3 side chain; on linkers, the order of the positions; unused ones are H or OH. Square brackets hold non-standard residues; d marks the D form. Peptide text beside a SMILES is read from it. 4Abz(3-OiBu) = CC(C)COc1cc(C(=O)[*:2])ccc1N[*:1]; X3 = CC(C)Oc1cc(C(=O)[*:2])ccc1N[*:1]
# What was measured:
# [1] = molecular target: T1, Histone acetyltransferase p300/Hypoxia-inducible factor 1-alpha (Homo sapiens, UniProt Q09472+Q16665); assay: Inhibition of fluorescein-labeled HIF-1alpha (786 to 826 residues) (unknown origin)/GST-fused p300 CH1 domain (323 to 423 residues) (unknown origin) protein-protein interaction at 500 uM after overnight incubation by time-resolved fluorescence assay relative to control; assay type: protein-complex assay
# [2] = molecular target: T2, Histone acetyltransferase p300 (Homo sapiens, UniProt Q09472); assay: Binding affinity to human GST-fused p300 CH1 domain (323 to 423 residues) under hypoxic condition by SPR assay
# [3] = molecular target: T1, Histone acetyltransferase p300/Hypoxia-inducible factor 1-alpha; assay: Inhibition of human fluorescein-labeled HIF-1alpha (786 to 826 residues)/ human GST-fused p300 CH1 domain (323 to 423 residues) protein-protein interaction after 1 hr by fluorescence polarization assay; assay type: protein-complex assay
# Target sequence in this assay (Q09472 whole entry, the tested form may be a part): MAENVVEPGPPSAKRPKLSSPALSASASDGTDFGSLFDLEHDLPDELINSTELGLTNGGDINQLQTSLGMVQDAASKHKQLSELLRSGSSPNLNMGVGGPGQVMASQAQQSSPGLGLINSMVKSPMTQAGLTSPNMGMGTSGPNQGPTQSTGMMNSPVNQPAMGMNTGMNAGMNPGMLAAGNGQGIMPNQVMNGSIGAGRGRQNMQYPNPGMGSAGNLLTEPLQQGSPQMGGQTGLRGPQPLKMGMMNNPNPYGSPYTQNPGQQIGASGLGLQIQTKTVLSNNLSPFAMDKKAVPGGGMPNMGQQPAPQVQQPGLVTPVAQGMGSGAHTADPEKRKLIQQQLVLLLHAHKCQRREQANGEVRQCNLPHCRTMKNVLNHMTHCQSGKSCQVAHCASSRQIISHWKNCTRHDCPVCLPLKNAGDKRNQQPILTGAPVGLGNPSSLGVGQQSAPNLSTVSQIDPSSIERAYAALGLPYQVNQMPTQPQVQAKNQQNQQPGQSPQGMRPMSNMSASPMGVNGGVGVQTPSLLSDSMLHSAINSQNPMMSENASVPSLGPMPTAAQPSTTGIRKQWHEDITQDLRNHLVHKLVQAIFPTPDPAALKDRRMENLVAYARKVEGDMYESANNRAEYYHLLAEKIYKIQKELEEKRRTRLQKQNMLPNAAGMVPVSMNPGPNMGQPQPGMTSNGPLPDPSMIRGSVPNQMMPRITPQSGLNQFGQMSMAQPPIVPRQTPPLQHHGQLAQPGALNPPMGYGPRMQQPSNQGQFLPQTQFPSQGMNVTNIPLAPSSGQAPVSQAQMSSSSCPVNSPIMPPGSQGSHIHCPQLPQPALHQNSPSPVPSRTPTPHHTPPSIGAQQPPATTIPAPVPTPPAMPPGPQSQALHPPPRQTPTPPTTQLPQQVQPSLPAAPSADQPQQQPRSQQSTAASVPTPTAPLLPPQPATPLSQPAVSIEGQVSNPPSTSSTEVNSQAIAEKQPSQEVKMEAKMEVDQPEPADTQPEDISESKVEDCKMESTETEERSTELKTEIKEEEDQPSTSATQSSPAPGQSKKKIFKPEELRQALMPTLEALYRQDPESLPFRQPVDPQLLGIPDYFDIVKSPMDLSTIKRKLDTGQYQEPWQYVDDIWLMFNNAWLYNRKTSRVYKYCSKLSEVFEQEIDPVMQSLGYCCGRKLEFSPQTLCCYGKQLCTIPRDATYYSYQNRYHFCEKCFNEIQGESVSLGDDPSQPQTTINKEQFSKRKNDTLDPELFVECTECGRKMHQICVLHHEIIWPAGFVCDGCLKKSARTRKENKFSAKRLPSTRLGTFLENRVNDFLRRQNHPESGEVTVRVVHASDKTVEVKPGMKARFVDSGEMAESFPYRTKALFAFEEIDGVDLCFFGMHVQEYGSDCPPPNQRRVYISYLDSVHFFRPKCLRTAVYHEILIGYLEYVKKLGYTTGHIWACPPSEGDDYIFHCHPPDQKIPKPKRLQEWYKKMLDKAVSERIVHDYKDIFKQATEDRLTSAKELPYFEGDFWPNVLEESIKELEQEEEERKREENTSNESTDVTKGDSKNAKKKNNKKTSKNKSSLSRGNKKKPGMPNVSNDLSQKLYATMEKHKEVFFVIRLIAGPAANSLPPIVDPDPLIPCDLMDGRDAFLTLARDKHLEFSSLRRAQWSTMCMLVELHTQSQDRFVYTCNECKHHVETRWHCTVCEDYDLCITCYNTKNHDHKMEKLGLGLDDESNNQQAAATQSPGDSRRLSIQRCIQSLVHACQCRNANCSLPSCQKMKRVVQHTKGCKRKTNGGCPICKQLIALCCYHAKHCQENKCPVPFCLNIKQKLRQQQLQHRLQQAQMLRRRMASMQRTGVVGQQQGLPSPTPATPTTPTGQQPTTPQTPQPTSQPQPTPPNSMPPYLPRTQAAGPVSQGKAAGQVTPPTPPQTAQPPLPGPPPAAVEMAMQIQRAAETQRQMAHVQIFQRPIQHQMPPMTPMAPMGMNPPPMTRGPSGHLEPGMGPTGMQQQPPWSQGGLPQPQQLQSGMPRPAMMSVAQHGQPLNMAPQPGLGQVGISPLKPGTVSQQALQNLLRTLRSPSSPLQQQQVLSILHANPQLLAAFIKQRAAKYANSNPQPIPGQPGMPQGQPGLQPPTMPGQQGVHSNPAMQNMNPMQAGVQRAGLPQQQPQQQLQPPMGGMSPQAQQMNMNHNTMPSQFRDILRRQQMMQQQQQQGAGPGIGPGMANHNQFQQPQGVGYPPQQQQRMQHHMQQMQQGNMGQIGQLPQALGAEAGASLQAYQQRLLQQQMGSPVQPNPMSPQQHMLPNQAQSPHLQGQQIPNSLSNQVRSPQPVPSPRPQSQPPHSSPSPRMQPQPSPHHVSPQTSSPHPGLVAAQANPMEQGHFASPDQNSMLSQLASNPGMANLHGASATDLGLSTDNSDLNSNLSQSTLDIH
# Target sequence in this assay (Q16665 whole entry, the tested form may be a part): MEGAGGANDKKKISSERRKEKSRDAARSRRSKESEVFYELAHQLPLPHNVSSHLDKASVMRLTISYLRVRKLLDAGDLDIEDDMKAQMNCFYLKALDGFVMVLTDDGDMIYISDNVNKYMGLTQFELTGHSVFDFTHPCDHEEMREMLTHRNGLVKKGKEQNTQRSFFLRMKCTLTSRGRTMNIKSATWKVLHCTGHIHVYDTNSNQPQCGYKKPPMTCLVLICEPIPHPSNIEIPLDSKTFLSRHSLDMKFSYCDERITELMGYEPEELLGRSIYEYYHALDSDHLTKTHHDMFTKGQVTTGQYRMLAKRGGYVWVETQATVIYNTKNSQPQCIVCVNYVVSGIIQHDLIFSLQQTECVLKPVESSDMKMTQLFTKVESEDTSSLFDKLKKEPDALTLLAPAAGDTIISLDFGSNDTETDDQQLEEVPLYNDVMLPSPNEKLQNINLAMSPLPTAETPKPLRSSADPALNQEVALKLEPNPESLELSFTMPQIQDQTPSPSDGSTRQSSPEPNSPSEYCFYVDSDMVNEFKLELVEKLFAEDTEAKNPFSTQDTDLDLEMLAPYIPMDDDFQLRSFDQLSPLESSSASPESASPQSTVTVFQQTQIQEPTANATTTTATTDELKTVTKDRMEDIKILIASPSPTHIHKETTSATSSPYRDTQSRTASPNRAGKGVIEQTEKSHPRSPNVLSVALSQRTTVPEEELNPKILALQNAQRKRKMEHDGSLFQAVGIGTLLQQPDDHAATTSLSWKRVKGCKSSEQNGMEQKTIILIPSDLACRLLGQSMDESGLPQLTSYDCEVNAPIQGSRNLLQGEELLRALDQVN
# [4] = molecular target: T2, Histone acetyltransferase p300; assay: Binding affinity to p300 (unknown origin) by fluorescence anisotrophy
# [5] = molecular target: T3, Hypoxia-inducible factor 1-alpha (Homo sapiens, UniProt Q16665); assay: Binding affinity to His-tagged HIF-1alpha (1 to 350 residues) (unknown origin) PAS B domain expressed in Escherichia coli BL21(DE3) by ITC
# [6] = molecular target: T1, Histone acetyltransferase p300/Hypoxia-inducible factor 1-alpha; assay: Inhibition of HIF-1alpha (unknown origin)/p300 (unknown origin) protein-protein interaction; assay type: protein-complex assay
# Target sequence in this assay (Q09472 whole entry, the tested form may be a part): as the sequence (Q09472 whole entry, the tested form may be a part) above
# Target sequence in this assay (Q16665 whole entry, the tested form may be a part): as the sequence (Q16665 whole entry, the tested form may be a part) above
# [7] = molecular target: T1, Histone acetyltransferase p300/Hypoxia-inducible factor 1-alpha; assay: Inhibition of fluorescein-labeled HIF-1alpha (786 to 826 residues) (unknown origin)/GST-fused p300 CH1 domain (323 to 423 residues) (unknown origin) protein-protein interaction after overnight incubation by time-resolved fluorescence assay; assay type: protein-complex assay
# Target sequence in this assay (Q09472 whole entry, the tested form may be a part): as the sequence (Q09472 whole entry, the tested form may be a part) above
# Target sequence in this assay (Q16665 whole entry, the tested form may be a part): as the sequence (Q16665 whole entry, the tested form may be a part) above
# [8] = molecular target: T2, Histone acetyltransferase p300; assay: Binding affinity to human p300 CH1 domain (330 to 420 residues) expressed in Escherichia coli BL21(DE3) by fluorescence anisotropy competition assay
# [9] = molecular target: T1, Histone acetyltransferase p300/Hypoxia-inducible factor 1-alpha; assay: Inhibition of HIF-1alpha (unknown origin)/p300 (unknown origin) protein-protein interaction by fluorescence anisotropy; assay type: protein-complex assay
# Target sequence in this assay (Q09472 whole entry, the tested form may be a part): as the sequence (Q09472 whole entry, the tested form may be a part) above
# Target sequence in this assay (Q16665 whole entry, the tested form may be a part): as the sequence (Q16665 whole entry, the tested form may be a part) above
# [10] = molecular target: T3, Hypoxia-inducible factor 1-alpha; assay: Binding affinity to HIF-1alpha (unknown origin) PAS B domain assessed as incorporation at Cys255 residues by mass spectrometry; design: concentration or dose not given beside the values
# Target sequence in this assay (Q16665 whole entry, looked up, the tested form may be a part): as the sequence (Q16665 whole entry, the tested form may be a part) above
# [11] = molecular target: T3, Hypoxia-inducible factor 1-alpha; assay: Binding affinity to HIF-1alpha (unknown origin) PAS B domain assessed as incorporation at Lys297 residues by mass spectrometry
# Target sequence in this assay (Q16665 whole entry, looked up, the tested form may be a part): as the sequence (Q16665 whole entry, the tested form may be a part) above
# [12] = molecular target: T3, Hypoxia-inducible factor 1-alpha; assay: Binding affinity to C-terminal Avi/FLAG-tagged HIF-1alpha (unknown origin) assessed as incorporation at His266 residues by mass spectrometry
# Target sequence in this assay (Q16665 whole entry, looked up, the tested form may be a part): as the sequence (Q16665 whole entry, the tested form may be a part) above
# [13] = molecular target: T3, Hypoxia-inducible factor 1-alpha; assay: Binding affinity to HIF-1alpha (unknown origin) PAS B domain assessed as incorporation at Cys334 residues by mass spectrometry
# Target sequence in this assay (Q16665 whole entry, looked up, the tested form may be a part): as the sequence (Q16665 whole entry, the tested form may be a part) above
# [14] = molecular target: T3, Hypoxia-inducible factor 1-alpha; assay: Binding affinity to HIF-1alpha (unknown origin) PAS B domain assessed as incorporation at His246 residues by mass spectrometry
# Target sequence in this assay (Q16665 whole entry, looked up, the tested form may be a part): as the sequence (Q16665 whole entry, the tested form may be a part) above
# [15] = molecular target: T2, Histone acetyltransferase p300; assay: Binding affinity to p300 CH1 domain (unknown origin) by tryptophan fluorescence assay
# [16] = molecular target: T3, Hypoxia-inducible factor 1-alpha; assay: Inhibition of HIF-1 dimerization in HEK293 cells after 24 hrs by renilla luciferase reporter gene assay; assay type: cell-based
# [17] = molecular target: T3, Hypoxia-inducible factor 1-alpha; assay: Binding affinity to Cys255 residue of C-terminal Avi/FLAG-tagged HIF-1alpha (unknown origin) after 1 hr by AlphaScreen assay
# MDA-MB-231 = assay: Antitumor activity against human MDA-MB-231 cells xenografted in mouse assessed as reduction in tumor volume at 15 mg/kg administered on alternative days for 28 days relative to control; assay type: functional; design: scale not given: the % may be the effect or the level left
# [18] = molecular target: T1, Histone acetyltransferase p300/Hypoxia-inducible factor 1-alpha; assay: Inhibition of HIF-1alpha/p300 protein-protein interaction in human cells after 2 hrs by immunoprecipitation assay; assay type: cell-based
# Target sequence in this assay (Q09472 whole entry, the tested form may be a part): as the sequence (Q09472 whole entry, the tested form may be a part) above
# Target sequence in this assay (Q16665 whole entry, the tested form may be a part): as the sequence (Q16665 whole entry, the tested form may be a part) above
# T2 sequence (Q09472 whole entry, the tested form may be a part): as the sequence (Q09472 whole entry, the tested form may be a part) above
compound,measurement,setting,value
COc1ccc([C@]2(c3nc(N)[nH]c3-c3ccc(O)cc3)N=C3N=CC=C4c5ccccc5N=C2N43)cc1,inhibition,[1],27%
CN1C(=O)[C@@]2(Cc3ccc(CCc4ccc(C[C@@]56SS[C@@](CO)(C(=O)N5C)N(C)C6=O)cc4)cc3)NC(=O)[C@]1(CO)SS2,Kd,[2],3620 nM
same,IC50,[3],600 to 700 nM
H-QLTSYDCEVNA-OH,Kd,[4],6740 nM
CC(C)C[C@@H]1NC(=O)[C@H](CS)NC(=O)[C@H](Cc2ccc(O)cc2)NC(=O)[C@H](C(C)C)NC(=O)[C@H](Cc2ccccc2)NC(=O)[C@H](CC(C)C)NC1=O,Kd,[5],124 nM
CN1C(=O)[C@@]23C[C@]4([C@]56C[C@@]78SS[C@@](CO)(C(=O)N7[C@H]5Nc5ccccc56)N(C)C8=O)c5ccccc5N[C@@H]4N2C(=O)[C@]1(CO)SS3 [CHAETOCIN],IC50,[6],12500 nM
COc1ccc([C@@]2(c3nc(N)[nH]c3-c3ccc(O)cc3)N=C3N=CC=C4c5ccccc5N=C2N43)cc1,IC50,[7],276000 nM
COc1ccc(S(=O)(=O)N(Cc2ccc3c(c2)C=CC(C)(C)O3)c2ccccc2)cc1OC,IC50,[6],590 nM
CC(C)COc1cc(C(=O)Nc2ccc(C(=O)Nc3ccc(C(=O)O)cc3OC(C)C)cc2OCC(C)C)ccc1N,IC50,[8],9190 nM
H-QLTSYDCEVNAPIQGSRNLLQGEELLRALDQVN-OH,IC50,[9],89000 nM
COC(=O)/C=C1/OC(c2ccc(O)cc2)=CC1=O,Activity,[10],> 50%
same,Activity,[11],10 to 20%
same,Activity,[12],10 to 20%
same,Activity,[13],10 to 20%
same,Activity,[14],10 to 20%
CCCC[C@@H](C(=O)N1CCN([C@@H](CCC(N)=O)C(N)=O)C(=O)[C@@H]1C)N1CCN[C@@H](CC(C)C)C1=O,Kd,[15],30000 nM
COc1ccc(S(=O)(=O)N(Cc2ccc(CN3CCOCC3)cc2)c2ccccc2)cc1OC,IC50,[6],900 nM
CC[C@H](C)[C@H](NC(=O)[C@@H]1CCCN1C(=O)[C@H](C)NC(=O)[C@H](CC(N)=O)NC(=O)[C@@H](NC(=O)[C@H](CCC(=O)O)NC(=O)[C@H](CO)NC(=O)[C@H](CC(=O)O)NC(=O)[C@H](Cc1ccc(O)cc1)NC(=O)[C@H](CO)NC(=O)[C@@H](NC(=O)[C@H](CC(C)C)NC(=O)[C@@H](N)CCC(N)=O)[C@@H](C)O)C(C)C)C(=O)N[C@@H](CCC(N)=O)C(=O)NCC(=O)N[C@@H](CO)C(=O)N[C@@H](CCCNC(=N)N)C(=O)N[C@@H](CC(N)=O)C(=O)N[C@@H](CC(C)C)C(=O)N[C@@H](CC(C)C)C(=O)N[C@@H](CCC(N)=O)C(=O)NCC(=O)Nc1ccc(C(=O)Nc2ccc(C(=O)Nc3ccc(C(=O)NCC(N)=O)cc3OC(C)C)cc2OCC(C)C)cc1OCC(C)C (H-QLTSYDSEVNAPIQGSRNLLQG[4Abz(3-OiBu)][4Abz(3-OiBu)][X3]G-NH2),IC50,[9],83000 nM
C=CC(=O)N1CCc2ccccc21,Activity,[10],25%
CC(C)COc1cc(C(=O)O)ccc1NC(=O)c1ccc(NC(=O)c2ccc(N)c(OC(C)C)c2)c(OCC(C)C)c1,IC50,[8],24000 nM
C[n+]1c2cc(N)ccc2cc2ccc(N)cc21 [EUFLAVINE],IC50,[16],1000 nM
CN1C(=O)[C@@]2(Cc3ccc(C[C@]45SS[C@](CO)(C(=O)N4C)N(C)C5=O)cc3)SS[C@]1(CO)C(=O)N2C,Kd,[2],750 nM
same,IC50,[3],1500 nM
O=[N+]([O-])c1ccc2c(c1)S(=O)(=O)C=C2,Activity,[10],> 50%
same,IC50,[17],43 nM
COc1ccc(S(=O)(=O)N(Cc2ccc(CN3CCOCC3)cc2)C2CCC2)cc1OC,IC50,[6],1000 nM
CC(C)C[C@@H]1NCCN([C@@H](CC(C)C)C(=O)N2CCN([C@@H](CCC(N)=O)C(N)=O)C(=O)[C@@H]2C)C1=O,Activity,MDA-MB-231,50%
COc1ccc(S(=O)(=O)N(Cc2ccc3c(n2)C=CC(C)(C)O3)C2CCC2)cc1OC,IC50,[6],280 nM
CN1C(=O)[C@]2(Cc3cn([C@]45C[C@@]67SS[C@@](CO)(C(=O)N6[C@H]4Nc4ccccc45)N(C)C7=O)c4ccccc34)SS[C@@]1(CO)C(=O)N2C [CHETOMIN],IC50,[18],540 nM
C=C1C(=O)OC2C1CCC(=C)C1CC(=O)C(=C)C12 (centres undefined),Activity,[10],> 50%
same,Activity,[11],10 to 20%
same,Activity,[12],10 to 20%
same,Activity,[13],10 to 20%
same,Activity,[14],10 to 20%
CC1=CC(O)(C#Cc2ccccc2)C=CC1=O (centres undefined),Activity,[10],> 50%
same,Activity,[11],10 to 20%
same,Activity,[12],10 to 20%
same,Activity,[13],10 to 20%
same,Activity,[14],10 to 20%
